The values below come from patent US5153211A, “Spiro-tricyclicaromatic succinimide derivatives as inhibitors of aldose reductase” (Alcon Laboratories, Inc., priority 1991, dated 1992).

For assay [1], the target named is T1, rat lens aldose reductase (Rattus norvegicus, UniProt P07943).
T1 construct: evaluated against rat lens aldose reductase; from tissue; host or cells: rat lens
Kind of assay: inhibition of rat lens aldose reductase. In kind it is biochemical. The procedure: *IC50 values are based on inhibition of rat lens aldose reductase.
a) P. F. Kador, L. O. Merola and J. H. Kinoshita, Docum. Ophthal. Proc. Series, 18, 117-124 (1979);
b) P. F. Kador, J. H. Kinoshita, W. H. Tung and L. T. Chylack, Jr., Invest. Ophthalmol. Vis. Sci., 19, 980-982 (1980);
c) P. F. Kador, D. Carper and J. H. Kinoshita, Analytical Biochemistry, 114, 53-58 (1981).
Wherein the assay mixture used in the tests containing 0.1M potassium phosphate buffer, pH 6.2, 0.2 mM nictoinamide adenine dinucleotide phosphate (NADPH), 10 mM D,L-glyceraldehyde, and an appropriate volume of the enzyme preparation, thermostated at 25° C. in the cell compartment of a spectrophotometer. These conditions are identical to those published in references (a), (b) and (c), except that a larger NADPH concentration was employed. […] The control sample contained no added inhibitor. In order to measure aldose reductase inhibition activity, varying concentrations of the inhibitor examples set forth below were added to the standard incubation mixture. The control, containing the enzyme and NADPH, gave a very small, but measurable rate; thus, it served as the blank against which to measure the glyceraldehyde-dependent rate of NADPH oxidation. The tests were conducted with human placental aldose reductase enzyme. The results of the tests are the product of multiple assays. […] A test compound is considered active if it inhibits or reduces human aldose reductase activity at 1×10^-4 M concentration or less. The following list is provided as a representative sample of the biological activity of the spiro-tricyclic derivatives of the present invention.
According to the procedures of Kador, Merola and Kinoshite, Docum. Ophthal. Proc. Series, 18 (1979) 117 and Kador and Sharpless, Biophysical Chemistry, 8 (1978) 81 the inhibition exerted by examples of the present invention where evaluated against rat lens aldose reductase. Otherwise, the inhibitor assay is identical to that employed against human aldose reductase in Example XXVI. Representative rat lens aldose reductase inhibition is presented in terms of the concentration of test compound required to reduce rat lens aldose reductase enzyme activity by 50%. A test compound is considered active if it inhibits or reduces rat lens aldose reductase activity at 1×10^-4 M concentration or less.

Assay [2] has as its system rat lenses in 30 mM xylose culture. The experiment in a line: rat lens culture assay, 30 mM xylose cataract model. The format is cell-based, Sprague-Dawley rats. To be noted: for lens opacification / lens wet weight increase: 7.5×10^-7 M in the culture media, 30 mM xylose, 18 h; for activity at 0.75 µM: Rattus norvegicus, after 18 h 30 mM xylose culture, compound 7.5 × 10^-7 M, % of control contralateral lens. How it is done:
Aldose reductase inhibitor potency may be evaluated in rat lens culture assays where 30 mM of glucose, galactose or xylose can be used in culture to induce a `sugar` cataract. In addition to monitoring lens clarity, certain biochemical radiolabeled markers (e.g., choline --^3 H and ^86 Rb) are employed to measure lens function. See Obazawa, Merola and Kinoshita, Invest. Ophthalmol., 13 (1974) 204 and Jernigan, Kador and Kinoshita, Exp. Eye Res., 32 (1981) 709.
The general procedure is as follows: a) Sprague-Dawley rats of 75-100 g body weight are sacrificed and the lenses removed immediately; b) the contralateral lens of the pair of lenses is employed as untreated control lens; c) the test lens is cultured in TC-199 culture media in the presence of 30 mM xylose, 30 mM xylose plus a selected concentration of test compound or a selected concentration of test compound; d) the contralateral control lens is treated identical to the test lens except no test compound or xylose is included; e) the matched lens pairs are cultured for 18 h in a CO2 incubator; f) the lenses are compared morphologically and weighed. All lenses, control and test groups, are allowed to preincubate for 1 h in respective control media or drug control media prior to transfer to xylose media or xylose-drug media. In those cases where radiolabelled markers are to be measured, the lenses are treated as aforementioned except the radiolabelled marker(s) are added to the culture at four hours before harvesting. Radiolabelled markers include choline --^3 H ([…] available from New England Nuclear), AIBA --^14 C (α-[1-^14 C]-(CH3)2 C(NH2)COOH available from New England Nuclear) and ^86 Rb. The effect of xylose on lens uptake of ^86 Rb, lens uptake of amino acid (AIBA --^14 C) and lens uptake of choline --^3 H and the effectiveness of representative compounds of the present invention to preserve normal lens morphology is reported here.
The effect of 30 mM xylose and 30 mM xylose plus selected concentrations of test compound on radioactivity ratio is expressed as L/M % of control. L/M % of control is defined as the test lens radioactivity divided by culture media radioactivity as a percentage of the control contralateral lens radioactivity to media radioactivity ratio under identical test conditions but always without xylose or test compound in the control. The effect of 30 mM xylose in the culture media gives a reproducible deleterious effect on the lens as measured by the various L/M %. Furthermore, after incubation of the lens in 30 mM xylose in the TC-199 culture media, the lens gains 20% weight (mostly water weight increase based on dry lens weight measurements) and becomes opaque in the cortex of the lens. Each experiment requires 20-40 pairs of lenses to determine the potency of a selected aldose reductase inhibitor.

Assay [3] has as its system galactosemic rats. The note with it: per oral, once daily, cited from earlier work.
The subject of assay [4] is chronic streptozotocin-induced rats. To be noted: 8 mg/kg per oral per day; cited from earlier work.
Setting [5] is: read-out: L/M% = Lens uptake of 86Rb.
The mark [6] stands for this setting: read-out: L/M% = Lens uptake of AIBA-14C (amino acid).
Where [7] appears, read: read-out: L/M% = Lens uptake of choline-3H.
[8] abbreviates: based on inhibition of rat lens aldose reductase, read-out: IC50.

Where two headings read alike, the source gives them in different places.

A word on the IC50: it is the midpoint of a concentration-inhibition curve. As to `COc1cc(F)cc2c1-c1c(OC)cc(F)cc1C21NC(=O)NC1=O` [2,7-difluoro-4,5-dimethoxyspiro (9H-fluorene-9,4'-imidazolidine)-2',5'-dione], in assay [1] (based on the inhibition of rat lens aldose reductase, read-out: IC50 value), the IC50 is 7.8 nM.
Regarding `O=C1NC(=O)C2(N1)c1cc(F)ccc1-c1ccc(F)cc12` [B, Spiro-(2,7-difluoro-9H-fluoren-9,4'-imidazolidine)-2',5'-dione, reference compound], the lens opacification entry in assay [2] is on record as “prevented”. The “lens wet weight increase” value in assay [2] is “prevented”. Also, the activity at 0.75 µM in assay [2] (setting [5]) was 82%; in assay [2] (setting [6]), 87%; in assay [2] (setting [7]), 105%. Besides, the “preventing cataract in galactosemic rats” value in assay [3] (0.4 mg/kg) was “wholly effective”.
As to `O=C1NC(=O)C2(S1)c1ccccc1-c1ccc(F)cc12` (centres unmarked) [C, Spiro-(2-fluoro-9H-fluoren-9,5'-thiazolidine)-2',4'-dione], in assay [2], the lens opacification entry was “prevented”. For the same molecule, in assay [2], the “lens wet weight increase” value was “prevented”. The activity at 0.75 µM in assay [2] (setting [5]) turned out to be 70%; in assay [2] (setting [6]), 58%; in assay [2] (setting [7]), 77%.
For `Cc1cc(F)cc2c1-c1ccc(F)cc1C21CC(=O)NC1=O` (centres unmarked) [Compound 3, 2,7-DIFLUORO-4-METHYLSPIRO[9H-FLUORENE-9,3'-PYRROLIDINE]-2',5'-DIONE], in assay [1] (setting [8]), the IC50 is 2.8 nM.
Still for that read-out and setting: under `O=C1NC(=O)C2(S1)c1cc(F)cc(F)c1-c1c(F)cc(F)cc12` [Compound 7, 2,4,5,7-TETRAFLUOROSPIRO[9H-FLUORENE-9,5'-THIAZOLIDINE]-2',4'-DIONE] stands 17 nM.
On the same count and under the same terms, under `O=C1NC(=O)C2(N1)c1cc(F)cc(F)c1-c1c(F)cc(F)cc12` [Compound 9, 2,4,5,7-TETRAFLUOROSPIRO[9H-FLUORENE-9,4'-IMIDAZOLIDINE]-2',5'-DIONE] stands 12 nM; under `Cc1cc(F)cc2c1-c1ccc(F)cc1C21NC(=O)NC1=O` (centres unmarked) [Compound 11, 2,7-DIFLUORO-4-METHYLSPIRO[9H-FLUORENE-9,4'-IMIDAZOLIDINE]-2',5'-DIONE], 12.8 nM.
Still for that read-out and setting: under `COc1cc(F)cc2c1-c1ccc(F)cc1C21NC(=O)NC1=O` (centres unmarked) [Compound 16, 2,7-DIFLUORO-4-METHOXYSPIRO[9H-FLUORENE-9,4'-IMIDAZOLIDINE]-2',5'-DIONE] stands 9.4 nM.
Consider `COc1cc(F)cc2c1-c1ccc(F)cc1C21CC(=O)NC1=O` (centres unmarked) [Compound 17, 2,7-DIFLUORO-4-METHOXYSPIRO[9H-FLUORENE-9,3'-PYRROLIDINE]-2',5'-DIONE], for which the IC50 in assay [1] (setting [8]) was found to be 4.8 nM.
Still for that read-out and setting: under `Cc1ccc2c(n1)-c1c(F)cc(F)cc1C21NC(=O)NC1=O` (centres unmarked) [Compound 22, 7,9-DIFLUORO-2-METHYLSPIRO[5H-INDENO[1,2-b]PYRIDIN-5,4'-IMIDAZOLIDINE]-2',5'-DIONE] stands 48 nM.
On the same count and under the same terms, under `COc1cc(F)cc2c1-c1c(F)cc(F)cc1C21NC(=O)NC1=O` (centres unmarked) [Compound 28, 2,4,7-TRIFLUORO-5-METHOXYSPIRO[9H-FLUORENE-9,4'-IMIDAZOLIDINE]-2',5'-DIONE] stands 11300 nM; under `CSc1cc(F)cc2c1-c1ccc(F)cc1C21NC(=O)NC1=O` (centres unmarked) [Compound 34, 2,7-DIFLUORO-4-METHYLTHIOSPIRO[9H-FLUORENE-9,4'-IMIDAZOLIDINE]-2',5'-DIONE], 17.5 nM; under `Cc1cc(F)cc2c1-c1ncc(F)cc1C21NC(=O)NC1=O` (centres unmarked) [Compound 43, 3,7-DIFLUORO-9-METHYLSPIRO[5H-INDENO[1,2-b]PYRIDIN-5,4'-IMIDAZOLIDINE]-2',5'-DIONE], 16.1 nM.
In the case of `O=C1NC(=O)C2(N1)c1ccccc1-c1ccc(F)cc12` (centres unmarked) [Compound A, Spiro-(-2-fluoro-9H-fluoren-9,4'-imidazolidine)-2',5'-dione, reference compound], in assay [2], the lens opacification result is given as “prevented” and the “lens wet weight increase” value is “prevented”. Moreover, the activity at 0.75 µM in assay [2] (setting [5]) came to 55%. Moreover, the activity at 0.75 µM in assay [2] (setting [6]) came out at 50%. Also, the activity at 0.75 µM in assay [2] (setting [7]) came out at 73%. Besides, in assay [4], the “cataract in chronic streptozotocin-induced rats” value is “prevent cataract” and the “motor nerve conduction velocity in chronic streptozotocin-induced rats” value is recorded as “significantly preserve”. Besides, the “preventing cataract in galactosemic rats” value in assay [3] (1.26 mg/kg) is given as “wholly effective”.
`O=C1NC(=O)C2(S1)c1cc(F)ccc1-c1ccc(F)cc12` [D, Spiro-(2,7-difluoro-9H-fluoren-9,5'-thiazolidine)-2',4'-dione]: the lens opacification entry in assay [2] is reported as “prevented”. Further, the “lens wet weight increase” value in assay [2] is “prevented”. Also, the activity at 0.75 µM in assay [2] (setting [5]) was determined as 83%; in assay [2] (setting [6]), 85%; in assay [2] (setting [7]), 109%.
